# “And” between values parts separate entries of the source, which are not always exact repeats. Equal values may be shown once.
# Columns and labels:
# [1] = system: fleabane (Erigeron canadiensis, ERICA); experiment: Example 1: herbicidal action; whole plants sprayed with B, PPO inhibitor applied as local leaf treatment, high light; type: in vivo, Erigeron canadensis; details: rate 60 g/ha (A alone)
# [2] = system: moringglory (Pharbitis purpurea, PHBPU); experiment: as above; type: in vivo; details: rate 60 g/ha (A alone)
# [3] = system: fleabane (Erigeron canadiensis, ERICA); experiment: Example 2: herbicidal action; whole plants sprayed with A and B in the spraying chamber, high light; type: in vivo, Erigeron canadensis; details: walk-in chamber
# [4] = system: velvet leave (Abutilon theophrasti, ABUTH); experiment: as above; type: in vivo; details: growth chamber
# [5] = system: morningglory (Pharbitis purpurea, PHBPU); experiment: as above; type: in vivo; details: growth chamber
# [6] = system: fleabane (Erigeron canadiensis); experiment: Example 3: herbicidal action; whole plants sprayed with B, component A applied as local leaf treatment, high light; type: in vivo, Erigeron canadensis; details: ERICA, rate 60 g/ha (A alone)
# [7] = 4 DAT, rate 0.250 g/ha (A alone)
# [8] = 14 DAT, rate 0.250 g/ha (A alone)
# [9] = 4 DAT, rate 0.500 g/ha (A alone)
# [10] = 14 DAT, rate 0.500 g/ha (A alone)
structure (smiles),measurement,setting,value
"CC(C)N(C)S(=O)(=O)NC(=O)c1cc(-n2c(=O)cc(C(F)(F)F)n(C)c2=O)c(F)cc1Cl [A.1.1, saflufenacil]",% damage,[1]; 7 DAT,10%
same,% damage,[1]; 10 DAT,56%
same,% damage,[1]; 11 DAT,10% and 18% and 19%
same,% damage,[1]; 42 DAT,45%
same,% damage,[2]; 4 DAT,28%
same,% damage,[2]; 10 DAT,35%
same,% damage,"[3]; 1 DAT, rate 0.125 g/ha (A alone)",38%
same,% damage,"[3]; 1 DAT, rate 0.250 g/ha (A alone)",70%
same,% damage,"[3]; 1 DAT, rate 0.350 g/ha (A alone)",65%
same,% damage,"[3]; 4 DAT, rate 0.125 g/ha (A alone)",38%
same,% damage,[3]; [7],83%
same,% damage,"[3]; 4 DAT, rate 0.350 g/ha (A alone)",90%
same,% damage,"[3]; 14 DAT, rate 0.125 g/ha (A alone)",18%
same,% damage,[3]; [8],67%
same,% damage,"[3]; 14 DAT, rate 0.350 g/ha (A alone)",75%
same,% damage,[4]; [7],67%
same,% damage,[4]; [9],96%
same,% damage,[4]; [8],35%
same,% damage,[4]; [10],83%
same,% damage,[5]; [7],95%
same,% damage,[5]; [9],98%
same,% damage,[5]; [8],85%
same,% damage,[5]; [10],93%
same,% damage,[6]; 2 DAT,55%
same,% damage,[6]; 8 DAT,34%

# Reference: US20130102463A1, “Herbicidal Compositions” (BASF SE, priority 2010, published 2013)
